Blank lines part the entries; values can stand above or below the compound they belong to.
Assays:
[1] = biological target: T1, D(2) dopamine receptor (Homo sapiens, UniProt P14416); assay: Displacement of [3H]N-methylspiperone from Dopamine D2 receptor (unknown origin) expressed in HEK293T cell membrane incubated for 2 hrs by radioligand competitive binding based MicroBeta TriLux reader method; assay type: cell membranes
[2] = biological target: T1, D(2) dopamine receptor; assay: Partial agonist activity at Dopamine D2 receptor (unknown origin) expressed in HEK293T coexpressing beta-arrestin-2 assessed as increase in cAMP accumulation incubated for 5 mins by beta-arrestin recruitment based BRET assay; assay type: functional, cell-based
[3] = biological target: T1, D(2) dopamine receptor; assay: Partial agonist activity at Dopamine D2 receptor (unknown origin) expressed in HEK293T co-expressing G-alphai assessed as increase in cAMP accumulation incubated for 5 mins by BRET assay; assay type: functional, cell-based
[4] = biological target: T2, 5-hydroxytryptamine receptor 2C (Homo sapiens, UniProt P28335); assay: Displacement of [3H]-LSD from 5-HT2C receptor (unknown origin) expressed in HEK293T cell membrane incubated for 2 hrs by radioligand competitive binding based MicroBeta TriLux reader method; assay type: cell membranes
T2 sequence (P28335 whole entry): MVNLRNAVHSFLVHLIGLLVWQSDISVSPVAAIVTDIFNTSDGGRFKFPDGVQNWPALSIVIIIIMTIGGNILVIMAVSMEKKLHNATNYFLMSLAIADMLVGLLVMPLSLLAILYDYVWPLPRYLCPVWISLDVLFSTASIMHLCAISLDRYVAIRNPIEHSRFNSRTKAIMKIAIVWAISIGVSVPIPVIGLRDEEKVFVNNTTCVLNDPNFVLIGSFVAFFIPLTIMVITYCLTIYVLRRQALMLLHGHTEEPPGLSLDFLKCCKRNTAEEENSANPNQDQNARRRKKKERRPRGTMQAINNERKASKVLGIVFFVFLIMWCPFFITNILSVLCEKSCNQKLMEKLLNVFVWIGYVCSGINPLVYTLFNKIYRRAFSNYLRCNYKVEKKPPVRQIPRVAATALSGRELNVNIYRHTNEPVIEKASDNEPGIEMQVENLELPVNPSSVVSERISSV

[5] = Drug concentration in C57BL/6J mouse brain at 5 mg/kg,ip measured at 0.5 hrs by LC-MS analysis; assay type: ADME, organism-based; details: read-out: Ct
[6] = Ratio of drug concentration in brain to plasma in C57BL/6J mouse at 5 mg/kg,ip measured at 0.5 hrs by LC-MS analysis; assay type: ADME, organism-based; details: read-out: BPR
[7] = biological target: D(1A) dopamine receptor (Homo sapiens, UniProt P21728); assay: Displacement of [3H]-SCH23390 from Dopamine D1 receptor (unknown origin) expressed in HEK293T cell membrane incubated for 2 hrs by radioligand competitive binding based MicroBeta TriLux reader method; assay type: cell membranes
[8] = Drug concentration in C57BL/6J mouse plasma at 5 mg/kg,ip measured at 0.5 hrs by LC-MS analysis; assay type: ADME, organism-based; details: in vivo
[9] = biological target: D(1B) dopamine receptor (Homo sapiens, UniProt P21918); assay: Displacement of […] from Dopamine D5 receptor (unknown origin) expressed in HEK293T cell membrane incubated for 2 hrs by radioligand competitive binding based MicroBeta TriLux reader method; assay type: cell membranes
[10] = Drug concentration in C57BL/6J mouse plasma at 5 mg/kg,ip measured at 2 hrs by LC-MS analysis; assay type: ADME, organism-based; details: in vivo
[11] = Drug concentration in C57BL/6J mouse brain at 5 mg/kg,ip measured at 2 hrs by LC-MS analysis; assay type: ADME, organism-based; details: read-out: Ct
[12] = Ratio of drug concentration in brain to plasma in C57BL/6J mouse at 5 mg/kg,ip measured at 2 hrs by LC-MS analysis; assay type: ADME, organism-based; details: read-out: BPR
[13] = AUC (0-infinity) in Sprague-Dawley rat at 3 mg/kg,iv measured upto 24 hrs by LC-MS analysis; assay type: ADME, organism-based; set-up: dose 3 mg/kg, time < 24 hrs, route iv; details: in vivo
[14] = Clearance in Sprague-Dawley rat at 3 mg/kg,iv measured upto 24 hrs by LC-MS analysis; assay type: ADME, organism-based; details: in vivo
[15] = Oral bioavailability in Sprague-Dawley rat at 10 mg/kg measured upto 24 hrs by LC-MS analysis; assay type: ADME, organism-based; details: in vivo
[16] = C0 in Sprague-Dawley rat at 3 mg/kg,iv measured upto 24 hrs by LC-MS analysis; assay type: ADME, organism-based; details: in vivo
[17] = Cmax in Sprague-Dawley rat at 10 mg/kg,po measured upto 24 hrs by LC-MS analysis; assay type: ADME, organism-based; set-up: time < 24 hrs, dose 10 mg/kg, route po; details: in vivo
[18] = Half life in Sprague-Dawley rat at 3 mg/kg,iv measured upto 24 hrs by LC-MS analysis; assay type: ADME, organism-based; details: in vivo
[19] = AUC (0-t) in Sprague-Dawley rat at 10 mg/kg,po measured upto 24 hrs by LC-MS analysis; assay type: ADME, organism-based; set-up: time < 24 hrs, dose 10 mg/kg, route po; details: in vivo
[20] = AUC (0-t) in Sprague-Dawley rat at 3 mg/kg,iv measured upto 24 hrs by LC-MS analysis; assay type: ADME, organism-based; set-up: dose 3 mg/kg, time < 24 hrs, route iv; details: in vivo
[21] = Half life in Sprague-Dawley rat at 10 mg/kg,po measured upto 24 hrs by LC-MS analysis; assay type: ADME, organism-based; details: in vivo
[22] = AUC (0-infinity) in Sprague-Dawley rat at 10 mg/kg,po measured upto 24 hrs by LC-MS analysis; assay type: ADME, organism-based; set-up: dose 10 mg/kg, time < 24 hrs, route po; details: in vivo
[23] = Tmax in Sprague-Dawley rat at 10 mg/kg,po measured upto 24 hrs by LC-MS analysis; assay type: ADME, organism-based; details: in vivo

D(1B) dopamine receptor, sequence (P21918 whole entry): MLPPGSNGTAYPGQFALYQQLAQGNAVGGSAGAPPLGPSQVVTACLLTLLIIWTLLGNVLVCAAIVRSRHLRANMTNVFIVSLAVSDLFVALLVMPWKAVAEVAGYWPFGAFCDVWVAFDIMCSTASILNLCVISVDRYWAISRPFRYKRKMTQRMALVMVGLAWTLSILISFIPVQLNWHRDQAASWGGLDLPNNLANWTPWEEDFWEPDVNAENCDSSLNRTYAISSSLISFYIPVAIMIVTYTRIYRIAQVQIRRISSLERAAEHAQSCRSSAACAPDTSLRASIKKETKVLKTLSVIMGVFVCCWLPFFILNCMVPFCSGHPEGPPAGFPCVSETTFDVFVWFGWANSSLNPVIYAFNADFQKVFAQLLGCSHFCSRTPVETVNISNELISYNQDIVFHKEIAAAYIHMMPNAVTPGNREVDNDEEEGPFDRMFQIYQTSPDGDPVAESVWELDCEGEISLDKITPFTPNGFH
D(1A) dopamine receptor, sequence (P21728 whole entry): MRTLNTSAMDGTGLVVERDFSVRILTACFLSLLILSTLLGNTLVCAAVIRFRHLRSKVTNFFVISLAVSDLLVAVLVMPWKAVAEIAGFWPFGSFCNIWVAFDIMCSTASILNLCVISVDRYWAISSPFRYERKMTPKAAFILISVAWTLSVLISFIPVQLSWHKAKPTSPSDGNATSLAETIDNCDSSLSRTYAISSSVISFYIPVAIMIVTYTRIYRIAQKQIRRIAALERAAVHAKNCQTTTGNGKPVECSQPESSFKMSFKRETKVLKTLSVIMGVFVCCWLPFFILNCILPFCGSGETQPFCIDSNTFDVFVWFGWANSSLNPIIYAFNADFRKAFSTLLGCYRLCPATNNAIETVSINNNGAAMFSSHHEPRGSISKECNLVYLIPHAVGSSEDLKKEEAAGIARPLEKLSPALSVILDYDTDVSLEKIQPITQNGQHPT
T1 sequence (P14416 whole entry): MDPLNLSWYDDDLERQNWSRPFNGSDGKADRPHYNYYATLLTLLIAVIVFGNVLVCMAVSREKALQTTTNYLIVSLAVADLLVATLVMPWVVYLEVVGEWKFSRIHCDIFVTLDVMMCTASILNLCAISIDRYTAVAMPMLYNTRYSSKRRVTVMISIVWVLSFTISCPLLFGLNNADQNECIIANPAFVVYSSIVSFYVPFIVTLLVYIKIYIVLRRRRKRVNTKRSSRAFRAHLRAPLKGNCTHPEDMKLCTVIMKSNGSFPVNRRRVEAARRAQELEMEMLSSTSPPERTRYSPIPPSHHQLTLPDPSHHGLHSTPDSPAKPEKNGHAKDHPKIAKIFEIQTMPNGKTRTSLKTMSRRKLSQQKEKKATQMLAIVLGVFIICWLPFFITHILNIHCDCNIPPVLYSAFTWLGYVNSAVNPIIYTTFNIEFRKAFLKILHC

Ki ([1]; read-out: Ki): 2280 nM
SMILES: COc1cccc2c3c(oc12)CN(CCCCOc1ccc2ccc(=O)n(C)c2c1)CC3

Ki ([1]; read-out: Ki): 109 nM
EC50 ([2]; read-out: EC50): 12.2 nM
EC50 ([3]; read-out: EC50): 30.4 nM
SMILES: CCOc1cccc2cc(CNCCCOc3ccc4c(c3)NC(=O)CC4)oc12

Ki ([1]; read-out: Ki): 1340 nM
EC50 ([2]; read-out: EC50): 518 nM
EC50 ([3]; read-out: EC50): 2210 nM
SMILES: COc1cccc2c3c(oc12)CN(CCCCOc1ccc2cccnc2c1)CC3

Ki ([1]; read-out: Ki): 181 nM
EC50 ([2]; read-out: EC50): 20.5 nM
EC50 ([3]; read-out: EC50): 270 nM
SMILES: COc1cccc2cc(CNCCCOc3ccc4ccc(=O)[nH]c4c3)sc12

Ki ([1]; read-out: Ki): 439 nM
Ki ([1]; read-out: pKi (converted)): 447 nM
EC50 ([2]; read-out: EC50): 45.1 nM
EC50 ([2]; read-out: pEC50 (converted)): 45.7 nM
EC50 ([3]; read-out: EC50): 955 nM
SMILES: CCOc1cccc2cc(CNCCCCCOc3ccc4c(c3)NC(=O)CC4)oc12

Ki ([1]; read-out: Ki): 2130 nM
SMILES: CCOc1cccc2cc(C(C)NCC3(O)CCCCC3)oc12 (configuration not stated)

Ki ([4]; read-out: Ki): 611 nM
concentration at 0.5 h [5]: 410 ng/mL
Kp at 0.5 h [6]: 0.759
Ki ([7]; read-out: Ki): 35.5 nM
Ki ([7]; read-out: pKi (converted)): 36.3 nM
Cp [8]: 540 ng/mL
Ki ([9]; read-out: Ki): 159 nM
Ki ([9]; read-out: pKi (converted)): 162 nM
Cp [10]: 571 ng/mL
concentration at 2 h [11]: 332 ng/mL
Kp at 2 h [12]: 0.439
SMILES: COc1cccc2c3c(oc12)CN(CCCCOc1ccc2c(c1)NC(=O)CC2)CC3

Ki ([1]; read-out: Ki): 62.8 nM
EC50 ([2]; read-out: EC50): 4.08 nM
EC50 ([3]; read-out: EC50): 6.8 nM
SMILES: CCOc1cccc2cc(CNCC[C@H]3CC[C@H](NC(=O)C4CC4)CC3)oc12

EC50 ([2]; read-out: EC50): 23 nM
SMILES: COc1cccc2c3c(oc12)CN(C/C=C/COc1ccc2ccc(=O)[nH]c2c1)CC3

Ki ([1]; read-out: Ki): 935 nM
Ki ([1]; read-out: pKi (converted)): 955 nM
EC50 ([2]; read-out: EC50): 125 nM
EC50 ([2]; read-out: pEC50 (converted)): 135 nM
EC50 ([3]; read-out: EC50): 2670 nM
SMILES: CCOc1cccc2cc(CNCCCCOc3ccc4oc(C)nc4c3)oc12

Ki ([1]; read-out: Ki): 582 nM
EC50 ([2]; read-out: EC50): 7.29 nM
EC50 ([3]; read-out: EC50): 53.7 nM
SMILES: O=C1CCc2ccc(OCCCCNCc3cc4ccccc4o3)cc2N1

Ki ([1]; read-out: Ki): 3190 nM
Ki ([1]; read-out: pKi (converted)): 3240 nM
EC50 ([2]; read-out: EC50): 1340 nM
EC50 ([2]; read-out: pEC50 (converted)): 1410 nM
EC50 ([3]; read-out: EC50): 869 nM
SMILES: COc1cccc2c3c(oc12)CN(CCCCOc1ccc2c(c1)NC(=O)C2)CC3

concentration at 0.5 h [5]: 32.1 ng/mL
Kp at 0.5 h [6]: 0.118
Cp [8]: 272 ng/mL
Cp [10]: 6.95 ng/mL
concentration at 2 h [11]: 3.02 ng/mL
Kp at 2 h [12]: 0.434
SMILES: COc1cccc2cc(CNCCCCOc3ccc4ccc(=O)[nH]c4c3)oc12

concentration at 0.5 h [5]: 168 ng/mL
Kp at 0.5 h [6]: 0.142
Cp [10]: 53.8 ng/mL
concentration at 2 h [11]: 6.05 ng/mL
Kp at 2 h [12]: 0.113
SMILES: CCOc1cccc2cc(CNCCCCOc3ccc4c(c3)NC(=O)CC4)oc12

concentration at 0.5 h [5]: 60.7 ng/mL
Kp at 0.5 h [6]: 0.183
Ki ([1]; read-out: Ki): 33.3 nM
Ki ([1]; read-out: pKi (converted)): 33.9 nM
Cp [8]: 331 ng/mL
EC50 ([2]; read-out: EC50): 2.01 nM
Cp [10]: 10.7 ng/mL
concentration at 2 h [11]: 4.1 ng/mL
Kp at 2 h [12]: 0.384
EC50 ([3]; read-out: EC50): 5.16 nM
SMILES: COc1cccc2cc(CNCCCCOc3ccc4c(c3)NC(=O)CC4)oc12

SMILES: COc1cccc2c3c(oc12)CN(CCCCOc1ccc2ccc(=O)[nH]c2c1)CC3
AUC(0-inf) [13]: 3010 ng·h/mL
clearance [14]: 16.7 mL/min/kg
bioavailability [15]: 88.8%
Ki ([4]; read-out: Ki): 555 nM
Ki ([4]; read-out: pKi (converted)): 562 nM
C0 at 24 h [16]: 1330 ng/mL
Cmax [17]: 1560 ng/mL
half-life [18]: 3.48 h
Ki ([7]; read-out: Ki): 189 nM
AUC(0-t) at 24 h [19]: 8920 ng·h/mL
AUC(0-t) at 24 h [20]: 2990 ng·h/mL
Ki ([9]; read-out: Ki): 1040 nM
Cp [10]: 397 ng/mL
half-life [21]: 2.87 h
AUC(0-inf) [22]: 8940 ng·h/mL
Tmax [23]: 0.5 h
EC50 ([3]; read-out: EC50): 18.8 nM

EC50 ([2]; read-out: EC50): 26.6 nM
EC50 ([3]; read-out: EC50): 0.31 nM
SMILES: COc1cccc2c3c(oc12)CN(CCCOc1ccc2ccc(=O)[nH]c2c1)CC3

EC50 ([3]; hek293t): Not Active
SMILES: CCOc1cccc2c3c(oc12)CN(CCCCOc1ccc2ccc(=O)[nH]c2c1)CC3

Ki ([1]; read-out: Ki): 99.3 nM
EC50 ([2]; read-out: EC50): 3.81 nM
EC50 ([3]; read-out: EC50): 14.7 nM
SMILES: CCOc1cccc2cc(CNCC[C@H]3CC[C@H](NC(=O)N(C)C)CC3)oc12

EC50 ([3]; hek293t): Not Active
SMILES: CC(C)Oc1cccc2c3c(oc12)CN(CCCCOc1ccc2ccc(=O)[nH]c2c1)CC3

Ki ([1]; read-out: Ki): 67.9 nM
Ki ([1]; read-out: pKi (converted)): 69.2 nM
EC50 ([2]; read-out: EC50): 6.2 nM
EC50 ([3]; read-out: EC50): 10.9 nM
SMILES: CCOc1cccc2cc(CNCC[C@H]3CC[C@H](NC(=O)N4CCCC4)CC3)oc12

Ki ([1]; read-out: Ki): 239 nM
EC50 ([2]; read-out: EC50): 2.51 nM
EC50 ([3]; read-out: EC50): 25.8 nM
SMILES: O=c1ccc2ccc(OCCCCNCc3cc4ccccc4o3)cc2[nH]1

concentration at 0.5 h [5]: 48.3 ng/mL
Kp at 0.5 h [6]: 0.061
Ki ([1]; read-out: Ki): 0.12 nM
Ki ([1]; read-out: pKi (converted)): 0.129 nM
Cp [8]: 792 ng/mL
EC50 ([2]; read-out: EC50): 0.22 nM
Cp [10]: 53.1 ng/mL
concentration at 2 h [11]: 5.76 ng/mL
Kp at 2 h [12]: 0.109
EC50 ([3]; read-out: EC50): 0.13 nM
EC50 ([3]; read-out: pEC50 (converted)): 0.123 nM
SMILES: CCOc1cccc2cc(CNCCCCOc3ccc4ccc(=O)[nH]c4c3)oc12
